Test results as given in patent publication US7579356B2, “Thia-tetraazaacenaphthylene kinase inhibitors” (Janssen Pharmaceutica NV, priority 2005, dated 2009).

Molecular target: T1, EGFR (Homo sapiens, UniProt P00533)
T1 construct: The intracellular portion of EGFR started at nucleotide 2189 (corresponding to amino acid 667) and ended at the termination codon; made in house; host or cells: Sf9 insect cells (baculovirus)
Experiment: EGFR Kinase Assay
Type: biochemical
Details: GST-EGFR, ATP 5 μM
Text: The EGFR kinase used was a fusion of Glutathione-S-Transferase (GST) and a PCR amplified intracellular portion of EGFR (Accession Number NM_005228). The intracellular portion of EGFR started at nucleotide 2189 (corresponding to amino acid 667) and ended at the termination codon. The portion was PCR amplified with primers that added the lambda attB sequences to each end, recombined into an entry vector, then into a GST destination vector (as described in Gateway Technologies Manual by Invitrogen Corporation, Carlsbad, Calif.).
The destination vector was recombined in the DH10BAC strain of bacteria to produce a bacmid. The bacmid was transfected into Sf 9 cells and the supernatant containing the baculovirus was collected. The GSTEGFR protein was purified using large cultures of Sf 9 cells infected with stock virus. After an appropriate period of time, the cells were collected and lysed. The GSTEGFR was then purified from the lysate on Glutathione-Sepharose columns (as described by Amersham Biosciences, Buckinghamshire, United Kingdom).
The EGFR substrate was prepared by biotinylating polyGluTyr (128 mg) (Sigma, St. Louis, Mo.) in a 1×PBS buffer incubated together with a 12-fold molar excess of Sulfo-NHS-LC-Biotin on ice for at least 2 hrs. The free biotin was separated from the biotinylated polyGluTyr on a gel filtration column.
A mixture of a 10× kinase buffer (500 mM Tris at pH 8.0, 100 mM Magnesium Chloride and 1 mM Sodium Vanadate), DTT (1 mM final from 500 mM stock), ATP (5 μM final from 10 mM stock), biotinylated polyGluTyr (10 μg/μL stock), γ-^33P ATP (10 μCl/μL stock) and water was added to each well (for a total of 90 μL/well) of a Streptavidin Flashplate (Perkin Elmer, Wellesley, Mass.).
Test compound in 100% DMSO (2 μL) was added to the appropriate wells. Diluted GSTEGFR (1:300 dilution in 50 mM Tris at pH 8.0 and 0.1% bovine serum albumin) (10 μL) was added to the wells to initiate the reactions.
The plates were incubated at 30° C. for 1 hr with shaking. The reacted contents were removed and the plates were sequentially washed three times with a 1×PBS stop buffer (300 μL without Magnesium and Calcium) and 100 mM EDTA. After the final wash, the same stop buffer (200 μL) was added to the wells. The plates were then sealed and read on the TopCount scintillation counter.
Test compounds were assayed in triplicate at 16 concentrations at half-log dilutions starting at 200 uM. A maximum and minimum signal for the assay was determined on each plate. The percent inhibition of a test compound was calculated according to the formula: […]
For a series of test concentrations, the IC50 was derived by graphing percent inhibition against the log of the concentrations tested for a given compound. For those compounds without an IC50, the inhibition values in percent are shown at a test concentration of 2 μM. For compounds with multiple values, each value represents a separate assay result.

T1 sequence (P00533 669-1210 limits assumed): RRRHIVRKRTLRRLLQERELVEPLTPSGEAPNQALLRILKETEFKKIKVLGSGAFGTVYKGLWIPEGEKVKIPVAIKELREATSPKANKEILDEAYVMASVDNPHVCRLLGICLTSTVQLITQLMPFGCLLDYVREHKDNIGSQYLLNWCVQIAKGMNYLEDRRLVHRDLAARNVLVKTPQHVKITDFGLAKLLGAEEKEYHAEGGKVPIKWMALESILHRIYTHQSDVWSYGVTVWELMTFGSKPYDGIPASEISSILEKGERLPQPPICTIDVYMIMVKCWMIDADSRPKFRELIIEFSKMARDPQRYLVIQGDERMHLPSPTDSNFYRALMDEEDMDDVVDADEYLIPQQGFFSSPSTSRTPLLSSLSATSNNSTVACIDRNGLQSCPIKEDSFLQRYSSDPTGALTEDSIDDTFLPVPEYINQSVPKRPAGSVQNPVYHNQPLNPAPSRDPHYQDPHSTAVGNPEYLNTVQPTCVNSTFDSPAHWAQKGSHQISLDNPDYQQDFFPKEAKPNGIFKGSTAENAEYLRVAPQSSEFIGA

Row | Structure (SMILES) | IC50 [nM]
1 | O=C(Nc1nccs1)c1sc2ncnc3c2c1NC(=O)N3c1ccc(F)c(Cl)c1 [Cpd 4, 5-(3-chloro-4-fluoro-phenyl)-4-oxo-4,5-dihydro-3H-1-thia-3,5,6,8-tetraaza-acenaphthylene-2-carboxylic acid thiazol-2-ylamide] | 72
2 | O=C(Nc1cccnc1)c1sc2ncnc3c2c1NC(=O)N3c1ccc(F)c(Cl)c1 [Cpd 5, 5-(3-chloro-4-fluoro-phenyl)-4-oxo-4,5-dihydro-3H-1-thia-3,5,6,8-tetraaza-acenaphthylene-2-carboxylic acid pyridin-3-ylamide] | 69
3 | O=C(Nc1ccc(NCCCN2CCOCC2)nc1)c1sc2ncnc3c2c1NC(=O)N3c1ccc(F)c(Cl)c1 [Cpd 6, 5-(3-chloro-4-fluoro-phenyl)-4-oxo-4,5-dihydro-3H-1-thia-3,5,6,8-tetraaza-acenaphthylene-2-carboxylic acid [6-(3-morpholin-4-yl-propylamino)-pyridin-3-yl]-amide] | 83
4 | O=C1Nc2c(-c3ccccc3)sc3ncnc(c23)N1c1ccc(F)c(Cl)c1 [Cpd 8, 5-(3-chloro-4-fluoro-phenyl)-2-phenyl-3H,5H-1-thia-3,5,6,8-tetraaza-acenaphthylen-4-one] | 542
5 | O=C(Nc1ccc(CNC[C@H]2CCCO2)cc1)c1sc2ncnc3c2c1NC(=O)N3c1ccc(F)c(Cl)c1 [Cpd 17, 5-(3-chloro-4-fluoro-phenyl)-4-oxo-4,5-dihydro-3H-1-thia-3,5,6,8-tetraaza-acenaphthylene-2-carboxylic acid [4-({[(2R)-tetrahydro-furan-2-ylmethyl]-amino}-methyl)-phenyl]-amide] | 44
6 | NCc1ccc(NC(=O)c2sc3ncnc4c3c2NC(=O)N4c2ccc(F)c(Cl)c2)cn1 [Cpd 23, 5-(3-chloro-4-fluoro-phenyl)-4-oxo-4,5-dihydro-3H-1-thia-3,5,6,8-tetraaza-acenaphthylene-2-carboxylic acid (6-aminomethyl-pyridin-3-yl)-amide] | 27
7 | C#Cc1cccc(N2C(=O)Nc3c(C(=O)Nc4ccc(CNC5CCNCC5)cc4)sc4ncnc2c34)c1 [Cpd 24, 5-(3-ethynyl-phenyl)-4-oxo-4,5-dihydro-3H-1-thia-3,5,6,8-tetraaza-acenaphthylene-2-carboxylic acid [4-(piperidin-4-ylaminomethyl)-phenyl]-amide] | 126
8 | COc1cc(N2C(=O)Nc3c(C(=O)Nc4ccc(CN5CCCCC5)cc4)sc4ncnc2c34)c(Cl)c(OC)c1OC [Cpd 26, 5-(2-chloro-3,4,5-trimethoxy-phenyl)-4-oxo-4,5-dihydro-3H-1-thia-3,5,6,8-tetraaza-acenaphthylene-2-carboxylic acid (4-piperidin-1-ylmethyl-phenyl)-amide] | 9260
9 | COc1cc(NC(=O)c2sc3ncnc4c3c2NC(=O)N4c2cc(OC)c(OC)c(OC)c2)ccc1OCCN1CCOCC1 [Cpd 27, 4-oxo-5-(3,4,5-trimethoxy-phenyl)-4,5-dihydro-3H-1-thia-3,5,6,8-tetraaza-acenaphthylene-2-carboxylic acid [3-methoxy-4-(2-morpholin-4-yl-ethoxy)-phenyl]-amide] | 41500
10 | O=C1Nc2c([N+](=O)[O-])sc3ncnc(c23)N1c1ccc(F)c(Cl)c1 [Cpd 156, 5-(3-chloro-4-fluoro-phenyl)-2-nitro-3H,5H-1-thia-3,5,6,8-tetraaza-acenaphthylen-4-one] | 1370
11 | Nc1sc2ncnc3c2c1NC(=O)N3c1ccc(F)c(Cl)c1 [Cpd 157, 2-amino-5-(3-chloro-4-fluoro-phenyl)-3H,5H-1-thia-3,5,6,8-tetraaza-acenaphthylen-4-one] | 371

Other lines, results leading:

Row | IC50 [nM] | Structure (SMILES)
12 | 37 | COc1ccc(NC(=O)c2sc3ncnc4c3c2NC(=O)N4c2ccc(F)c(Cl)c2)cc1OC [Cpd 2, 5-(3-chloro-4-fluoro-phenyl)-4-oxo-4,5-dihydro-3H-1-thia-3,5,6,8-tetraaza-acenaphthylene-2-carboxylic acid (3,4-dimethoxy-phenyl)-amide]
13 | 43 | COc1cc(NC(=O)c2sc3ncnc4c3c2NC(=O)N4c2ccc(F)c(Cl)c2)ccc1O [Cpd 19, 5-(3-chloro-4-fluoro-phenyl)-4-oxo-4,5-dihydro-3H-1-thia-3,5,6,8-tetraaza-acenaphthylene-2-carboxylic acid (4-hydroxy-3-methoxy-phenyl)-amide]
14 | 30 | COc1cc(NC(=O)c2sc3ncnc4c3c2NC(=O)N4c2ccc(F)c(Cl)c2)ccc1OCCN1CCOCC1 [Cpd 20, 5-(3-chloro-4-fluoro-phenyl)-4-oxo-4,5-dihydro-3H-1-thia-3,5,6,8-tetraaza-acenaphthylene-2-carboxylic acid [3-methoxy-4-(2-morpholin-4-yl-ethoxy)-phenyl]-amide]
15 | 27 | COc1cc(NC(=O)c2sc3ncnc4c3c2NC(=O)N4c2ccc(F)c(Cl)c2)ccc1OCCCN1CCCCC1 [Cpd 21, 5-(3-chloro-4-fluoro-phenyl)-4-oxo-4,5-dihydro-3H-1-thia-3,5,6,8-tetraaza-acenaphthylene-2-carboxylic acid [3-methoxy-4-(3-piperidin-1-yl-propoxy)-phenyl]-amide]
16 | 42 | COc1cc(NC(=O)c2sc3ncnc4c3c2NC(=O)N4c2ccc(F)c(Cl)c2)ccc1OCCC1CCNCC1 [Cpd 22, 5-(3-chloro-4-fluoro-phenyl)-4-oxo-4,5-dihydro-3H-1-thia-3,5,6,8-tetraaza-acenaphthylene-2-carboxylic acid [3-methoxy-4-(2-piperidin-4-yl-ethoxy)-phenyl]-amide]
17 | 2430 | COc1ccc(CC(=O)Nc2sc3ncnc4c3c2NC(=O)N4c2ccc(F)c(Cl)c2)cc1OC [Cpd 158, N-[5-(3-chloro-4-fluoro-phenyl)-4-oxo-4,5-dihydro-3H-1-thia-3,5,6,8-tetraaza-acenaphthylen-2-yl]-2-(3,4-dimethoxy-phenyl)-acetamide]
18 | 1040 | COc1ccc(C(=O)Nc2sc3ncnc4c3c2NC(=O)N4c2ccc(F)c(Cl)c2)cc1OC [Cpd 159, N-[5-(3-chloro-4-fluoro-phenyl)-4-oxo-4,5-dihydro-3H-1-thia-3,5,6,8-tetraaza-acenaphthylen-2-yl]-3,4-dimethoxy-benzamide]

Same assay, conditions: test concentration of 2 μM; compounds without an IC50; read-out: EGFR inhibition in percent

Row | inhibition at 2 µM [%] | Structure (SMILES)
19 | 15 | COc1cc(N2C(=O)Nc3c(C(=O)Nc4ccc(CN5CCCCC5)cc4)sc4ncnc2c34)cc(OC)c1OC [Cpd 28, 5-(3,4,5-trimethoxy-phenyl)-4-oxo-4,5-dihydro-3H-1-thia-3,5,6,8-tetraaza-acenaphthylene-2-carboxylic acid (4-piperidin-1-ylmethyl-phenyl)-amide]
